Results on two compounds are retold here after patent US20160235068A1, “CONTROLLED RELEASE PARTICLES, PRODUCTION METHOD THEREOF, MOLDING MATERIAL, AND MOLDED ARTICLE” (priority 2013, published 2016).

The conditions of data set [1]: cited from earlier work.
Data set [2] in a line: Alkali-resistance test (Test A), suspending agent of controlled release particles. Format: physicochemical. To be noted: 168 h, 0.05 %. As to the method:
1 mL of the diluted suspending agent was weighed in a glass bottle, and 4 mL of a saturated calcium hydroxide solution was added thereto, thereby preparing a test solution. The test solution was allowed to stand in a constant temperature of 40° C.
After 7 days from allowing the test solution to stand, 5 mL of acetonitrile was added to the test solution, the antibiotic compound was extracted, the amount of the antibiotic compound was determined with HPLC, and the remaining ratio of the antibiotic compound was calculated.

≈ marks a conversion by molar mass, not a printed value.

For `CN/C(=N\[N+](=O)[O-])NCc1cnc(Cl)s1` [Clothianidin, (E)-1-(2-chlorothiazole-5-ylmethyl)-3-methyl-2-nitroguanidine], the solubility to water in data set [1] was 0.33 mg/mL (≈ 1320 µM).
Take `O=[N+]([O-])NC1=NCCN1Cc1ccc(Cl)nc1` [Imidacloprid, 1-(6-chloro-3-pyridylmethyl)-N-nitroimidazolidin-2-ylideneamine]: in data set [2], the “Alkali-resistance (Test A) Remaining ratio (%) of antibiotic compound” value came out at 0%.
